Data reported in US5185349A, “Substituted amide ACAT inhibitors lactone derivatives” (priority 1991, dated 1993).
Counter-ions that a name gives are not always drawn.

Biological target: T1, acyl-CoA: cholesterol acyltransferase (ACAT) (Oryctolagus cuniculus, UniProt G1SFD9)
T1 construct: in a tissue preparation containing rabbit intestinal microsomes; from tissue; host or cells: rabbit intestine, microsomes
T1 sequence (G1SFD9 1-524): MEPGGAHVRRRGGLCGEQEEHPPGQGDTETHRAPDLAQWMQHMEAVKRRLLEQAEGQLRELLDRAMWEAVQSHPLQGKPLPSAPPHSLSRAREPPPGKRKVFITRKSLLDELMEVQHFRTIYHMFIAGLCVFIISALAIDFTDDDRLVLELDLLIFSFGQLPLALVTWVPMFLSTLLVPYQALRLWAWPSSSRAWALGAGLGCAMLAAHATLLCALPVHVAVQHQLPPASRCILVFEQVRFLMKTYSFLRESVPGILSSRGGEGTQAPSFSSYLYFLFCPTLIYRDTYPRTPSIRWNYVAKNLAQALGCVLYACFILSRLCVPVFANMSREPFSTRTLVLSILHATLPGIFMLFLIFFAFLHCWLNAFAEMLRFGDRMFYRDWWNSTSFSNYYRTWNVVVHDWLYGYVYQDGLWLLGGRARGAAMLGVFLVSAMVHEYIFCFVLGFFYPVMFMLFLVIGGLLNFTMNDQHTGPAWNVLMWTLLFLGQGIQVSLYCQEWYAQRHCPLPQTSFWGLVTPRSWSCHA
Assay: in vitro ACAT inhibition test (radiolabeled cholesterol oleate formed from radiolabeled oleic acid, rabbit intestinal microsomes)
Format: biochemical
Conditions: concentration required to inhibit the activity of the enzyme by 50%
Procedure: The ability of representative compounds of the present invention to inhibit ACAT was measured using an in vitro test more fully described in F. J. Field and R. G. Salone, Biochemica et Biophysica 712:557-570 (1982). The test assesses the ability of a test compound to inhibit the acylation of cholesterol by oleic acid by measuring the amount of radiolabeled cholesterol oleate formed from radiolabeled oleic acid in a tissue preparation containing rabbit intestinal microsomes.
The data appear in Table 1 where they are expressed as IC50 values; i.e., the concentration of test compound required to inhibit the activity of the enzyme by 50%.

Row | IC50 | Structure (SMILES)
1 | 0.404 µM | CCCCCCC1CCC(C(=O)Nc2c(C(C)C)cccc2C(C)C)C(=O)O1 (centres unmarked) [Example 3, N-[2,6-bis(1-methylethyl)phenyl]-6-hexyltetrahydro-2-oxo-2H-pyran-3-carboxamide]
2 | 0.336 µM | CCCCCCCC1CCC(C(=O)Nc2c(C(C)C)cccc2C(C)C)C(=O)O1 (centres unmarked) [Example 4, N-[2,6-bis(1-methylethyl)phenyl]-6-heptyltetrahydro-2-oxo-2H-pyran-3-carboxamide]

More lines, now with the values behind:

Row | Structure (SMILES) | IC50
3 | CCCCCCCC1CC(C(=O)Nc2c(C(C)C)cccc2C(C)C)C(=O)O1 (centres unmarked) [Example 2, N-[2,6-bis(1-methylethyl)phenyl]-5-heptyltetrahydro-2-oxo-3-furancarboxamide] | 0.26 µM
4 | CC(C)c1cccc(C(C)C)c1NC(=O)C1CC(c2ccc(F)cc2)OC1=O (centres unmarked) [Example 1, N-[2,6-bis(1-methylethyl)phenyl]-5-(4-fluorophenyl)tetrahydro-2-oxo-3-furancarboxamide] | 0.587 µM
5 | CC(C)c1cccc(C(C)C)c1NC(=O)C(CC(O)c1ccc(F)cc1)C(=O)O (stereo not drawn) [Example 7, γ-[2,6-bis(1-methylethyl)phenyl]-amino]carbonyl]-4-fluoro-α-hydroxybenzenebutanoic acid monosodium salt] | 1.33 µM
